Several values for one entry are separate records, joined by “and”; a condition that tells them apart may be missing. Identical values can stand only once.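 Grown in 96-well plates, cells were treated for 48 hours with each compound at five concentrations. Insufficient inhibition: endpoint recorded as highest concentration tested. Here, GI50 denotes the concentration required for 50% inhibition of growth. TGI marks complete inhibition of growth.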
Tests used:
Experiment in all cases: NCI anticancer screen, dose series, 48 h
NCI-H226 lung = tested on: NCI-H226 lung
MDA-MB-435 = tested on: MDA-MB-435
HCT-116 colon = tested on: HCT-116 colon
NCI-H23 lung = tested on: NCI-H23 lung
SK-OV-3 ovarian = tested on: SK-OV-3 ovarian
NCI-H460 lung = tested on: NCI-H460 lung

| Structure (SMILES) | TGI (NCI-H226 lung) | TGI (MDA-MB-435) | TGI (HCT-116 colon) | TGI (NCI-H23 lung) | TGI (SK-OV-3 ovarian) | TGI (NCI-H460 lung) | GI50 (NCI-H23 lung) |
| --- | --- | --- | --- | --- | --- | --- | --- |
| C=CCOc1ccccc1N=N/C(C#N)=N\Nc1ccccc1OCC=C | > 100 µM | > 100 µM | > 100 µM | > 100 µM | > 100 µM | > 100 µM |  |
| CN(C(=O)Cc1ccc(Cl)c(Cl)c1)[C@H]1CCCC[C@@H]1[N+]1(C)CCCC1 | > 100 µM | > 100 µM | > 100 µM | > 100 µM | > 100 µM |  |  |
| COc1cc2c(c(OC)c1OC)-c1ccc(SC)c(=O)cc1[C@@H](OC(C)=O)CC2 |  |  | > 100 µM | 0.194 µM |  | > 100 µM |  |
| CC(C)C(C/C=C1\CC(CO)(COC(=O)c2ccccc2)OC1=O)C(C)C (stereo not drawn) | 39.8 µM | > 100 µM | 31 µM | 38 µM | 87.9 µM | 43.7 µM |  |
| O=C(/C=C/c1ccsc1)c1ccco1 | > 63.6 µM | > 50.3 µM | 16.6 µM | 30.9 µM | 42.3 µM | 33.4 µM |  |
| CCOC(=O)Nc1c(C#N)[n+]([O-])c2cc(Cl)c(Cl)cc2[n+]1[O-] | 42.9 µM | 36.6 µM | 59.3 µM | 53.9 µM | 66 µM | 34.5 µM |  |
| c1ccc(C2=Nc3nc4ccccc4n3C(c3ccccc3)C2)cc1 (stereo not drawn) | > 100 µM | > 100 µM | > 100 µM | > 100 µM | > 100 µM | > 100 µM |  |
| O=C(Nc1nc2c(=O)[nH]cnc2s1)c1ccccc1 | > 100 µM | > 100 µM | > 100 µM | > 100 µM | > 100 µM | > 100 µM |  |
| Cc1ccc(OCC2OC(n3cnc4c(N(C)C)nc(Br)nc43)CC2Oc2ccc(C)cc2)cc1 (stereo not drawn) | > 100 µM | > 100 µM | > 100 µM | > 100 µM | > 100 µM | > 100 µM |  |
| COC(=O)C(CCc1ccccc1I)C1=CCC2(CC1)OCCO2 (stereo not drawn) | > 100 µM | 87.7 µM |  | > 100 µM | > 100 µM | > 100 µM |  |
| NC(=Nc1ccc(O)cc1)S(=O)(=O)O | > 100 µM | > 100 µM | > 100 µM | > 100 µM | > 100 µM | > 100 µM |  |
| CN(C)c1nc(NC23CC4CC(CC(C4)C2)C3)nc(N(C)C)n1 | > 77.6 µM | > 100 µM | > 57.1 µM | > 100 µM | > 100 µM | > 100 µM |  |
| C=CCOCn1cnc2c(N)ncnc21 | > 100 µM | > 100 µM | > 100 µM | > 100 µM | > 100 µM | > 100 µM |  |
| COc1cc(OC)c2c(O)c3c(cc2c1)CC(C)(C)CC3=O | > 100 µM | > 100 µM | > 100 µM | > 100 µM | > 100 µM | > 100 µM |  |
| CC(C(=O)ON1C(=O)CCC1=O)c1ccc(C(=O)c2ccccc2)s1 (stereo not drawn) | > 100 µM | > 100 µM | > 100 µM | > 100 µM | > 100 µM | > 100 µM |  |
| O=C1/C(=C\c2cccc(Oc3ccccc3)c2)S(=O)(=O)C(c2ccccc2)N1c1ccccc1Cl (stereo not drawn) | > 100 µM | 87 µM | 39.2 µM | > 100 µM | > 100 µM | > 100 µM |  |

| Structure (SMILES) | TGI (NCI-H226 lung) | TGI (MDA-MB-435) | TGI (HCT-116 colon) | TGI (NCI-H23 lung) | TGI (SK-OV-3 ovarian) | TGI (NCI-H460 lung) | GI50 (NCI-H23 lung) |
| --- | --- | --- | --- | --- | --- | --- | --- |
| COc1ccc(S(=O)(=O)O)cc1-n1nc(C(=O)Nc2ccccc2)n[n+]1-c1cc(S(=O)(=O)[O-])ccc1OC | > 100 µM | > 100 µM | > 100 µM | > 100 µM | > 100 µM | > 100 µM |  |
| CC(C)[C@@H]1CC[C@@H](C)C[C@H]1OC(=O)/C=C1/C2C=CC(O2)C1C(=O)O[C@@H]1C[C@H](C)CC[C@H]1C(C)C (stereo partly drawn) | > 100 µM | > 100 µM | > 100 µM | > 100 µM | > 100 µM | > 100 µM |  |
| O=[N+]([O-])/C(C(Cl)=C(Cl)Cl)=C1\NCCO1 | > 100 µM | > 100 µM | > 100 µM | > 100 µM | > 100 µM | > 100 µM |  |
| NC(=O)c1nnc2cc(F)ccc2c1N | > 100 µM | > 100 µM | > 100 µM | > 100 µM | > 100 µM | > 100 µM |  |
| COC(=O)c1cc(NC(=O)c2cc(NC(=O)c3cc([N+](=O)[O-])cn3C)cn2C)cn1C | > 100 µM | > 100 µM | > 100 µM | > 100 µM | > 100 µM | > 100 µM |  |
| CCOC(=O)c1cc(C(=O)c2ccccc2)n2nc(-c3ccc(Cl)cc3)ccc12 | 55.8 µM | > 100 µM | > 100 µM | > 100 µM | 34.5 µM | 50.9 µM |  |
| O=c1[nH]nc(-c2ccccc2)n1/N=C/c1ccncc1 | > 100 µM | > 100 µM | > 100 µM | > 100 µM |  | > 100 µM |  |
| CC(=O)N1CCc2c([nH]c3ccc(Br)cc23)C1c1ccccc1 (stereo not drawn) | > 10 µM | > 10 µM | > 10 µM |  | > 10 µM | > 10 µM |  |
| Cn1c(=O)c2c(nc3n(Cc4ccccc4)c(=O)c(NCCBr)cn23)n(C)c1=O | 63.1 µM | > 100 µM | 82 µM | > 100 µM | 51.9 µM | > 100 µM |  |
| CC(C)CCC[C@@H](C)[C@H]1CCC2C3CC=C4C[C@@H](Oc5c6ccccc6nc6ccccc56)CCC4C3CCC21 (stereo partly drawn) | > 50 µM | > 50 µM | > 50 µM | > 50 µM | > 50 µM | > 50 µM |  |
| COC(=O)C(C)(N=Cc1ccccc1)c1ccccc1 (stereo not drawn) | > 100 µM | > 100 µM | > 100 µM | > 100 µM | > 100 µM | > 100 µM |  |
| O=c1/c(=C\c2ccccc2)sc2n1C(c1ccccc1)C1(O)CCCCC1N=2 (stereo not drawn) | > 100 µM | > 100 µM | > 100 µM | > 100 µM |  | > 100 µM |  |
| CCOC(=O)Oc1cc2c(c(OC)c1OC)-c1ccc(SC)c(=O)cc1C(NC(=O)C(F)(F)F)CC2 (stereo not drawn) | 0.00301 µM | < 0.001 µM |  |  |  | 0.753 µM and 2.47 µM | < 1 nM |
| CCC1C(c2cccc(OC)c2O)c2cc3c(cc2OC1N1CCCC1)OCO3 (stereo not drawn) |  | 15.9 µM | 21.2 µM | > 100 µM |  | 55.3 µM |  |
| Cc1ccc(S(=O)(=O)/N=C(\NN)Nc2ccc(Cl)cc2)cc1 | > 100 µM |  | > 100 µM | > 100 µM | > 100 µM | > 100 µM |  |
